Measurements published in ChEMBL document CHEMBL3507680, “University of Dundee, Gates Library screen for HepG2 cell viability”.

Assay: Human HepG2 cell viability assay in 384 well format
Type: toxicity, cell-based
Set-up: dose 125 nL, time 70.5 hour; concentration not given beside the values
Conditions: HepG2 cells, read-out: Inhibition

Compound	cytotoxicity at 70.5 h [%]
CS(=O)(=O)NC[C@]12COC[C@H]1CN(CCc1ccccc1)C2	-8.06
CCOCCCn1c(NC(=O)c2cnc(C)cn2)nc2ccccc21	-5.61
CC(C)(C)OC(=O)NC1CCCN(Cc2cccc(O)c2)C1 (stereo not drawn)	-4.69
C=Cn1ncc(CN2C[C@@H]3CCCN3C[C@H]2Cc2ccccc2)c1C	14.6
Cc1ccc(S(=O)(=O)NC(=O)CCOCc2ccccc2)s1	-10.6
CC(C)n1nc(CN2CCCC2=O)c2c1CN(C(=O)c1ccc[nH]1)C2	-5.63
O=C(CC1CCCC1)N1CCCC1c1nc(O)cc(-c2ccccn2)n1 (stereo not drawn)	-1.16
CCOc1cc(Cl)ccc1CNC(=O)N1CCCC(CO)C1 (stereo not drawn)	-9.17
CNC(=O)[C@@H]1C[C@H](N)CN1S(=O)(=O)c1cc(Cl)cc(Cl)c1O	-6.21
O=C(NCCCn1nc2ccccn2c1=O)NC1CCC(O)CC1 (stereo not drawn)	9.94
CCCC(NC(=O)c1ccccc1Br)c1nnn[nH]1 (stereo not drawn)	-3.33
c1ccc2c(CC3CN(Cc4nccs4)CCO3)cccc2c1 (stereo not drawn)	-0.398
Cn1ccnc1CN1CCC2(CC1)COCCN(c1ncccn1)C2	-5.62
CCc1cnc(C)nc1NCCN1CCC(O)CC1	9.55
CN(C)CCO[C@H]1CN(Cc2ccco2)[C@@H]2COC[C@H]12	-3.7
CC(C)COC(C)C(=O)NCc1cc(F)cc(F)c1 (stereo not drawn)	-13.3
Cc1ccc(C(=O)N2CCCC(n3cncn3)C2)o1 (stereo not drawn)	1.71
COc1ncccc1NC(=O)c1[nH]nc(C(C)C)c1Br	-8.6
CN1CCc2ccc(NCc3cccs3)cc2C1=O	-15.5
CC(=O)N1CCC(N2CCC(c3nc(C)cc(C)n3)C2)CC1 (stereo not drawn)	-3.99
CC(C)c1noc(C(C)N2CCN(Cc3cccc(C#N)c3)CC2)n1 (stereo not drawn)	-11
CCc1noc(CN(C)C(=O)COc2cc(Cl)cc(Cl)c2)n1	1.61
O=C(C1CCCC1)N1CC[C@]2(O)CCN(Cc3ncccn3)C[C@@H]2C1	-3.12

Compound	cytotoxicity at 70.5 h [%]
CC(C)S(=O)(=O)N1CCCC(c2nnc(Cn3ccnc3)n2C)C1 (stereo not drawn)	-7.74
Cc1cccc(OCc2ccc(C(=O)N3N=CCC3(O)C(F)(F)F)o2)c1 (stereo not drawn)	9.08
CCOc1ccnc(N2CCN(C(=O)c3ccncc3)CC2)n1	-9.15
Cc1n[nH]c(C2CN(Cc3csc(C4CCCCC4)n3)CCO2)n1 (stereo not drawn)	0.0665
O=C(NCCN1CCCCC1)c1nc(-c2cccc3[nH]ccc23)no1	13.5
COc1ccc(-n2c(CO)nc3ccccc32)cc1CO	-6.11
CN1CCCC1c1cccc(Cc2ccccc2F)n1 (stereo not drawn)	0.232
Cn1cc(CN2CCC3(CC2)CC(c2ccncc2)C(=O)N3)cn1 (stereo not drawn)	-10.1
Cc1nccn1-c1ccc(=O)n(CCNC(=O)c2c(F)cccc2Cl)n1	-6.16
CC(C)c1nn(C)c(Cl)c1CNC1CCOc2ccccc21 (stereo not drawn)	-2.92
CC(C)(C)n1nc(C2CC2)cc1C(=O)NC1CCN(CC(N)=O)CC1	-12.3
CN(C)CCN1CCc2c(nnn2C)C1COCc1ccccc1 (stereo not drawn)	10.5
CC(C)n1c(=O)nc2n1C(=O)N(c1ccccc1)C2	-5.73
O=C(C1CC1)N1C[C@H]2CCCN(S(=O)(=O)c3ccc(Cl)s3)[C@H]2C1	-0.267
Cn1ccnc1SCCNc1ccnc(C(F)(F)F)n1	-2.76
Cc1cnccc1N1CCCN(C(=O)CCCc2cn[nH]c2)CC1	2.95
Cc1ccc(-c2nc(CN3C[C@@H](C)NC[C@@H]3C)c(C)o2)s1	-11.5
O=C(Nc1nnc(C2CC2)s1)NC1CCOc2ccccc21 (stereo not drawn)	22.9
CCc1nc2n(n1)CC(NCc1nc(-c3cccnc3)no1)CC2 (stereo not drawn)	-10.5
CN(C)C[C@H]1C[C@@H](CO)CN(C(=O)c2cc(=O)[nH]c3cc(F)ccc23)C1	-2.71
OC1CCCOC12CCN(c1ncccn1)CC2 (stereo not drawn)	15.7
CC(C(=O)O)N1CC2(CCC1=O)CCN(CCc1ccccc1)CC2 (stereo not drawn)	-11
CSc1ccc(NC(=O)NCC2CCCO2)cc1F (stereo not drawn)	11.2

Compound	cytotoxicity at 70.5 h [%]
Cc1cnc(-c2nc(C3CCCN(Cc4ccccc4C)C3)no2)cn1 (stereo not drawn)	21.7
COCCN1CCn2cc(CNC(=O)C3CCC3)nc2C1	1.63
CC(C)CCCC(C)NC(=O)c1ccc(OCC(N)=O)cc1 (stereo not drawn)	-6.3
Cc1nc(C)n(CC2CCCN(Cc3noc(C)n3)C2)n1 (stereo not drawn)	-5.88
CCOc1cc(CNC(=O)NC2CC=CC2)ccc1OC(F)F	-5.65
CCNc1ncc(C(=O)NCc2ccc(F)c(C(F)(F)F)c2)cn1	20.6
Cc1cc(CN2CCN(C(=O)NC(C)Cn3ccnc3)CC2)no1 (stereo not drawn)	-3.28
Cc1noc(C)c1CN(C)C(=O)C1CCCc2ccccc21 (stereo not drawn)	-0.492
CN(C)CCN(C)C(=O)Cc1ccc2c(c1)OCCO2	0.0835
O=C(O)c1ccn(-c2ccccc2NC(=O)c2ccccc2Cl)n1	-3.53
CCn1c(=O)nc2n1C(=O)N(c1cccc(Cl)c1)C2	-1.37
Cc1ccsc1C(=O)Nc1cc(Br)c(=O)n(C)c1	-8.88
Cc1nc(C)n(CC2CN(Cc3cccnc3)CCO2)n1 (stereo not drawn)	-3.76
CCN(CCCNC(=O)c1ccc(C)[nH]c1=O)S(C)(=O)=O	-0.303
CC(C)c1noc(C(C)N2CCN(Cc3noc(C(C)(C)C)n3)CC2)n1 (stereo not drawn)	-3.35
CCc1nccn1CC(=O)N1C[C@H]2CC[C@@H]1CN(C(=O)N(C)C)C2	-3.56
Cc1nn(C)c(C)c1CN1CCCC1c1nccc(CN(C)C)n1 (stereo not drawn)	-0.0769
O=C1NCC2(CCCN(CCc3ccccc3)C2)Oc2ccccc21 (stereo not drawn)	21.7
Cc1cc(C)n(Cc2ccc(-c3noc(C(=O)NCCO)n3)cc2)n1	-18.6
CC1CCN(S(=O)(=O)NCc2ccccc2Cn2cncn2)CC1	-2.92
COc1ccc(F)cc1C[S+]([O-])CC(=O)NCc1ccccc1 (stereo not drawn)	-4.53
CN(Cc1ccccn1)C1COC2(CCN(Cc3nccs3)CC2)C1 (stereo not drawn)	15.3
O=C1CC[C@H]2[C@H](CCN2c2ncc(F)cn2)N1c1cccnc1	-6.96

Compound	cytotoxicity at 70.5 h [%]
Cc1cc(N2CCC3(CCCN(CCO)C3=O)C2)nc2ccccc12 (stereo not drawn)	-26.3
O=C(Cc1cccc(Cl)c1)N[C@@H]1CCNC[C@H]1O	-3.16
CC1CCCN(CCNC(=O)c2scnc2Cl)C1 (stereo not drawn)	-7.04
Cc1noc(CNC(=O)c2ccccc2-n2cc(CN)cn2)n1	-5.09
O=C(NCCc1ccc(I)s1)N1CCC1	-2.1
O=C(c1c[nH]c2ccccc2c1=O)N1CCSCC1	-6.3
Cc1ccc(CNCC2Cn3nnc(-c4cccc(F)c4)c3CO2)o1 (stereo not drawn)	-2
Cc1cc(C(=O)N2CCCC2)ccc1NCC(=O)N1CCCCC1C (stereo not drawn)	7.01
CNC(=O)CN1CCOCC2(C1)CN(C(=O)CC(C)C)CCO2 (stereo not drawn)	-4.88
O=C(NCCOc1ncc(Cl)cc1Cl)c1ccncc1	1.47
CC(C)c1nn(C)c(Cl)c1CNCc1ccc(N(C)C)nc1	-2.07
CC(C)O[C@H]1CN(Cc2cnc3c(-c4ccccc4)cnn3c2)C[C@@H]1O	-5.99
Cc1ccc(C(=O)N2CCCCC2c2[nH]ncc2S(C)(=O)=O)s1 (stereo not drawn)	12.5
Cc1cccc(CN2C(=O)CO[C@@H]3CN(Cc4nccn4C)C[C@H]32)c1	-3.81
C[C@H](c1ccc(Cl)cc1)n1c(C2CC2)n[nH]c1=O	-3.55
O=S(=O)(c1cccnc1)N1CCN(Cc2nc(-c3ccco3)cs2)CC1	0.0264
Cc1ccc(CN2CCN(Cc3nccn3C)[C@H]3CS(=O)(=O)C[C@H]32)o1	-6.86
Cc1ccc2nc(C3CCCN3Cc3nnc(C)s3)[nH]c2c1 (stereo not drawn)	26.6
Cc1cccc(C(Nc2nccc(-c3ccc(C)nc3C)n2)C2CC2)n1 (stereo not drawn)	-3.12
CN(C)C(=O)COCc1cncc2c1CCN(Cc1nccn1C)C2	-7.66
CCSCc1ccnc(NC(=O)C2CCOC2)c1 (stereo not drawn)	-4
COc1cccc(S(=O)(=O)N2CCCc3c(OC)nn(C)c3C2)c1	-5.16
CCOc1nc2cnccc2n(CC(=O)NCCc2ccccc2)c1=O	28.7

Compound	cytotoxicity at 70.5 h [%]
CCN1CCCn2c(nc(CNC(=O)c3cnoc3C)cc2=O)C1	5.12
Cc1nc2c(c(NC3CC3)n1)CCN(C(=O)CCO)CC2	-4.49
COc1cccc(OCC2CCCN(C(C)=O)C2)c1 (stereo not drawn)	-18.9
COc1ccc(OCCN(C)S(=O)(=O)N2CCOCC2)cc1	-6.12
Cc1nccn1C1CCCN(C(=O)c2cccc(OCC(N)=O)c2)C1 (stereo not drawn)	-10.4
O=C(CCCN1C(=O)CCC1=O)NCC1(c2ccccc2)CCC1	-11.4
c1csc(CN2CCO[C@H]3[C@H](OCCN4CCCC4)CC[C@@H]32)n1	-11.1
CO[C@@H]1CCN(C(=O)c2ccccn2)[C@H]1Cc1ccccc1	-16.2
Cc1ccc(S(=O)(=O)Nc2c(C)nc(N3CCCC3)nc2C)cc1	-2.23
CC(C)c1noc(CCCC(=O)NCC2CCS(=O)(=O)C2)n1 (stereo not drawn)	22.3
COCCN1CCC(C(=O)c2cc(F)ccc2F)CC1	-2.7
Cc1cccc(NC(=O)N2CCOCC(CN(C)C)C2)c1C (stereo not drawn)	-6.8
O=C(Cc1cccs1)N1CCn2cc(Cn3cccn3)nc2C1	-13.4
CCC(CC)C(CNC(=O)Nc1ccc(C)cc1)N1CCOCC1 (stereo not drawn)	-15.7
Cc1ccc2c(c1)C(NC1CC1)CC21CCNCC1 (stereo not drawn)	11
CN(C)CCOC[C@H]1CC[C@H]2[C@H](CCN2C(=O)c2ccoc2)O1	-12.4
CC(NCC(=O)Nc1ccc(N2CCCCCC2)cc1)c1cccs1 (stereo not drawn)	-8.9
NC(=O)C1CCN(CCc2ccc(NCc3cscn3)cc2)CC1	-12.5
N#Cc1cn(CCCN2CCc3ccccc32)c(=O)[nH]c1=O	21.5
CN(CCO)c1ncc(-c2ccc(NC(=O)[C@@H]3CCCCN3)cc2)cn1	-1.72
CC(C)N(C(=O)CN(C)C1CCc2ccccc21)C(C)C (stereo not drawn)	-0.805
